Patent US20120053076A1, “METHODS FOR IDENTIFICATION” (Cambridge Enterprise Limited, priority 2009, published 2012)
Where two headings read alike, the source gives them in different places. No end group written: not given here.

Assays:
sstr2 = molecular target: T1, sstr2 (Homo sapiens, UniProt P30874); test: Equilibrium binding of [3H]-BN83250 to THP-1 cells
T1 construct: with 1×10^6 THP-1 cells in Gey's Balanced Salt Solution; endogenous in cells; host or cells: THP-1 cells (whole cells, 4° C.)
T1 sequence (P30874 whole entry): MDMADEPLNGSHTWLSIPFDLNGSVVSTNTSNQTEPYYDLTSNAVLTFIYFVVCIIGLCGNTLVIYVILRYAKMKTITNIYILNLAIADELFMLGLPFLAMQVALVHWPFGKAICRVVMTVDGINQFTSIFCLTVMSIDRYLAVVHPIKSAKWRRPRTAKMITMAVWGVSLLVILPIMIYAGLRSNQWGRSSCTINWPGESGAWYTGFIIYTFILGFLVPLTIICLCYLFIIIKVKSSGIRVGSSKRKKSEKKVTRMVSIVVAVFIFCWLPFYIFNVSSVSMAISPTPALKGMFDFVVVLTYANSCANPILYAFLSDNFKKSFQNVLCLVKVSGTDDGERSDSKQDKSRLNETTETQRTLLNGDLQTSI
Experimental: Methods: [^3H]-BN83250 was synthesesized from (S,E)-3-(2′,2′-dimethyldodec-4′-enoylamino)-caprolactam by catalytic hydrogenation using tritium gas over a palladium catalyst (CRB Ltd, Cleveland, UK), yielding the tritiated product at a concentration of […] in ethanol with a specific activity of 220 Ci/mmol. The (S,E)-3-(2′,2′-dimethyldodec-4′-enoylamino)-caprolactam was prepared as follows: (S,S)-3-amino-caprolactam hydro-pyrrolidine-5-carboxylate (10 mmol) and Na2CO3 (30 mmol) in water (30 ml) were added to a solution of 2,2-dimethyl-dodec-4-enoyl chloride (10 mmol) in dichloromethane (30 ml) at ambient temperature and the reaction was stirred for 12 hours. The organic layer was then separated and the aqueous phase was extracted with additional dichloromethane (2×25 ml). The combined organic layers were dried over Na2CO3 and reduced in vacuo. The residue was purified by silica column chromatography (1:1 EtOAc:hexanes to EtOAc) to give […]-3-(2′,2′-dimethyl-dodec-4′-enoyl)amino-caprolactam as a colourless oil (2.12 g, 63%). The radiolabelled compound was stored in the dark at 4° C. until required. Prior to use the specific activity was adjusted by addition of unlabelled BN83250.
For the analysis of binding, individual reactions were set up (in triplicate for each condition), with 1×10^6 THP-1 cells in Gey's Balanced Salt Solution, 10 nM [^3H]-BN83250 (at 50 Ci/mmol) and various concentrations of (S)-3(2′2′-dimethylpropionoylamino)-tetrahydropyridin-2-one (10 pM to 10 μM). Excess (100 μM) unlabelled BN83250 was used to determine the level of non-specific binding. After 2 hours at 4° C. (conditions previously shown to achieve equilibrium binding, and which prevent uptake of the radioligand that would result in an over-estimate of binding) excess label was washed away by centrifugation (3 washes with 5 ml of Gey's Balanced Salt Solution) and the bound radioactivity was determined by scintillation counting of the solubilised cell pellet.

THP-1 cells = test: MCP-1 induced THP-1 cell migration, Transwell assay; assay type: cell-based, human; conditions: for Human chemokine-induced THP-1 migration assay Max effect: Table 3; for Max effect (maximum inhibition): Table 2, highest dose tested (1-10 μM); for Maximal inhibition of leukocyte migration: maximal / very high doses, Example 6
Experimental: Leukocyte migration was measured using the 96-well format micro Transwell® assay system from Neuroprobe (Gaithersburg, Md., USA). In principle, this assay consists of two chambers separated by a porous membrane. The chemoattractant is placed in the lower compartment and the cells are placed in the upper compartment.
The method was performed essentially as previously described (Reckless & Grainger (1999) Biochem. J. 340:803-11).
First, the cell suspension to be placed in the upper compartment was prepared. The THP-1 cells were pelleted by centrifugation (770×g; 4 mins) and washed with Geys Balanced Salt Solution with 1 mg/ml BSA (GBSS+BSA). This wash was then repeated, and the cells re-pelleted before being resuspended in a small volume of GBSS+BSA for counting, for example using a standard haemocytometer.
The volume of GBSS+BSA was then adjusted depending on the number of cells present so that the cells were at final density of 4.45×10^6 cells per ml of GBSS+BSA. This ensured that there were 100,000 THP-1 cells in each 25 μl of the solution to be placed in the upper chamber of the plate.
The suspension of THP-1 cells at 4.45×10^6 cells/ml was divided into three pots. […] To the second pot, the BSCI was added at the same concentration as in the first pot, but additionally the sstr2 antagonist was also added (for example BIM 23454 [Tulipano et al. (2002) 143:1218-24] or BIM 23627 were added at 66 nM final concentration from a stock solution in GBSS). To the third pot, GBSS+BSA plus vehicle as appropriate was added so that the volumes in three pots are equal, acting as a control.
Next, the chemoattractant solution to be placed in the lower compartment was prepared. MCP-1 was diluted in GBSS+BSA to give a final concentration of 25 ng/ml (after all additions). Note that, as recommended by Frow et al (Med. Res. Rev. 24:276-98) this is the concentration of MCP-1 which induces maximal migration in this system. This solution was divided into three pots, as for the cell suspension. To one pot, the BSCI was added to the same final concentration as was added to the cell suspension, in the second pot the BSCI and the sstr2 antagonist were both added at the same concentration as previously added to the cell suspension, while to the remaining pot GBSS+BSA plus vehicle as appropriate was added so that the volumes in the three pots were equal.
Once the chemoattractant solutions for the lower wells and cell solutions for the upper chambers were prepared, the migration chamber was assembled. 29 μl of the appropriate chemoattractant solution was placed into the lower well of the chamber. Assays were performed with at least triplicate determinations of each condition. Once all the lower chambers were filled, the porous membrane was applied to the chamber in accordance with the manufacturer's instructions. Finally, 25 μl of the appropriate cell solution was applied to each upper chamber. A plastic lid was placed over the entire apparatus to prevent evaporation.
The assembled chamber was incubated at 37° C., 5% CO2, for 2 hours.
At the end of the incubation, the liquid cell suspension was gently removed from the upper chamber, 20 μl of ice-cold 20 mM EDTA in PBS was added to the upper chamber, and the apparatus was incubated at 4° C. for 15 mins. This procedure caused any cells adhering to the underside of the membrane to fall into the lower chamber.
After this incubation the filter was carefully flushed with GBSS+BSA to wash off the EDTA, and then the filter was removed.
The number of cells migrated into the lower chamber under each condition can then be determined by a number of methods, including direct counting, labelling with fluorescent or radioactive markers or through the use of a vital dye. Typically, we utilised the vital dye MTT.

fetal rat pituicytes = test: Rat pituicyte GH suppression assay; assay type: cell-based; conditions: for EC50 / Rat pituicyte GH suppression assay Max effect: Table 3; for EC50: read-out: Rat pituicyte GH suppression assay ED50; for Rat pituicyte GH suppression assay Max effect: suppression compared to vehicle
From the text: (§1) Two different assays for “classical” sstr2 functions were adopted: (1) cultured foetal rat pituitary cells secreted growth hormone which is inhibited by sstr2 agonists in a dose-dependent fashion and (2) selected glucose-sensitive sub-clones of the human Panc-1 cell line secrete insulin which is inhibited by sstr2 agonists in a dose-dependent fashion.
Methods: Cultures of fetal rat pituicytes were established exactly as previously described (Murray et al. (2004) J. Clin. Endocrinol. Metab. 89:3027-32) by enzymatic dispersion. After 48 hrs in low glucose DMEM plus 10% FCS, cells in 48 well plates (5×10^4 cells per well) were washed for 4 hrs in serum-free DMEM and then incubated with test agents at various concentrations for a further 24 hrs in serum-free DMEM. At the end of this period, the conditioned medium was harvested, any cell debris removed by centrifugation and assayed for GH using a commercially available ELISA (Linco; cat# EZRMGH-45K) in accordance with the manufacturer's instructions.
(§2) Results were reported as the mean±SD, expressed as the fold change from cells in the presence of vehicle only.

Panc-2H4 cells = test: Human Panc-2H4 insulin suppression assay; assay type: cell-based; conditions: for Human Panc-2H4 insulin suppression assay Max effect: suppression compared to vehicle
From the text: as §1
Glucose-sensitive sub-clones of the human Panc-1, a cell line derived from a pleiomorphic epithelioid carcinoma of the exocrine pancreas, were obtained essentially as described by Hamil et al. (2008) Biomed. Sci. Instrum. 44:441-6. Briefly, Panc-1 cells were subcultured in 24 well plates, and the medium was supplemented with an additional 5% glucose. […] The resulting sub-lines were then tested for glucose sensitivity by preparing wells of a 96-well plate (5×10^4 cells per well) which were then exposed to cultured medium containing a range of glucose concentrations (low glucose DMEM, DMEM, DMEM+1% glucose, DMEM+2.5% glucose and DMEM+5% glucose). After 24 hrs incubation, the conditioned medium was collected and assayed for insulin secretion by ELISA (Linco; cat# EZHI-14K) in accordance with the manufacturer's instructions.
Further 96 well plates were prepared using Panc-2H4 (5×10^4 cells per well) in DMEM. After 24 hrs, the medium was switched to DMEM+5% glucose containing various test agents at various concentrations (triplicate wells per condition). After a further 24 hrs, the conditioned medium was harvested and the concentration of insulin was determined by ELISA as described above.
as §2

[1] = test system: rat peripheral blood leukocytes; test: Rat chemokine-induced PBMC migration assay; assay type: cell-based; conditions: Table 3
5HT2a = conditions: rodents; cited from earlier work
platelets = test: ADP-mediated platelet activation/aggregation; assay type: cell-based
Jurkat T cells = test: SDF-1α induced migration of parental Jurkat T cells; assay type: cell-based, human
Experimental: Results: The level of the SDF-1α, receptor CXCR4 was similar on Jurkat-D3B and the parental Jurkat T cell line. Furthermore, the Jurkat-D3B cells responded to SDF-1α in a Transwell® chemotaxis assay (see Example 1 for the methodology employed) over a similar concentration range to the parental cell line.
Jurkat T cells and Jurkat-D3B cells were induced to migrate in response to 100 ng/ml SDF-1α (R&D systems; the concentration of SDF-1α which induced maximal cell migration in both lines). The BSCI BN83250 was then added at various concentrations between 0 nM and 1000 nM (each in triplicate) to both the upper and lower compartments (at the same concentration in each compartment, so as not to create a gradient of BSCI concentration). DMSO (1% final concentration) was used as the vehicle, and was present in all wells at equal concentration.

[2] = Table 3, read-out: Human Panc-2H4 insulin suppression assay ED50

Molecule: CC1(C(=O)N[C@H]2CCCCNC2=O)CCCCC1 [(S)-3-(1′-methylcyclohexyl-1′-carbonylamino)-caprolactam]
- Competition with BN83250 binding to sstr2, in words (sstr2): compete with BN83250 binding to sstr2 to a similar extent

Molecule: O=C1NCCCC[C@@H]1NC(=O)C12CC3CC(CC(C3)C1)C2 [BN83470, (S)-3-(admantane-1′-carbonylamino)-caprolactam]
- Human chemokine-induced THP-1 migration assay Max effect (THP-1 cells): 100%
- Inhibition of GH release, in words (fetal rat pituicytes): inhibited GH release only at much higher concentrations
- EC50 (fetal rat pituicytes): 270 nM
- Rat pituicyte GH suppression assay Max effect (fetal rat pituicytes): 56%
- EC50 (Panc-2H4 cells; [2]): > 1000 nM
- Human Panc-2H4 insulin suppression assay Max effect (Panc-2H4 cells; Table 3): <10%
- Rat chemokine-induced PBMC migration assay Max effect [1]: 100%
- Competition with BN83250 binding to sstr2, in words (sstr2): compete with BN83250 binding to sstr2 to a similar extent

Molecule: C[C@@H](N)Cc1c2ccoc2c(Br)c2ccoc12 [Bromo-DragonFLY]
- Head twitching by classical 5HT2a agonists (5HT2a): induce this classical effect

Molecule: C[C@@H](c1c[nH]c2ccccc12)[C@@H](NC(=O)N1CCC(n2c(=O)[nH]c3ccccc32)CC1)C(=O)NC[C@@H]1CCC[C@H](CN)C1 [L-779,976]
- Human chemokine-induced THP-1 migration assay Max effect (THP-1 cells): 65%
- Chemokine-induced THP-1 cell migration assay (“BSCI” target) Max Effect (THP-1 cells; Table 4): 65%
- Chemokine-induced THP-1 cell migration assay (“BSCI” target) Max Effect (THP-1 cells; Table 5): 65%
- EC50 (fetal rat pituicytes): 2.9 nM
- Rat pituicyte GH suppression assay Max effect (fetal rat pituicytes): 55%
- EC50 (Panc-2H4 cells; [2]): 17 nM
- Human Panc-2H4 insulin suppression assay Max effect (Panc-2H4 cells; Table 3): 40%
- Panc-2H4 insulin suppression assay (“classical” target) Max Effect (Panc-2H4 cells; Table 4): 40%
- EC50 (Panc-2H4 cells; Table 4, 0.01 nM to 1,000 nM, DMSO 1%, read-out: Panc-2H4 insulin suppression assay (“classical” target) ED50): 17 nM
- Panc-2H4 insulin suppression assay (“classical” target) Max Effect (Panc-2H4 cells; Table 5): 40%
- EC50 (Panc-2H4 cells; Table 5, read-out: Panc-2H4 insulin suppression assay (“classical” target) ED50): 17 nM

Molecule: CCN(CC)C(=O)[C@@H]1C=C2c3cccc4[nH]cc(c34)C[C@H]2N(C)C1 [LSD]
- Head twitching by classical 5HT2a agonists (5HT2a): induce this classical effect

Molecule: [3H]C(CCCCCCC)C([3H])CC(C)(C)C(=O)N[C@H]1CCCCNC1=O (stereo partly drawn) [[^3H]-BN83250, 4′,5′-^3[H] (S)-3-(2′,2′-dimethyldodecanoyl)amino-caprolactam]
- Binding sites per cell (sstr2; THP-1 cells): 100,000 to 200,000 sites per cell
- Kd (sstr2; THP-1 cells, 2 hours at 4° C., read-out: Affinity (Scatchard analysis)): ~80 nM

Molecule: Clc1cccc(Cl)c1N=C1NCCN1 [clonidine]
- Effect on ADP-mediated platelet activation/aggregation (platelets): significant potentiate ADP-mediated platelet aggregation

Molecule: CC(C)C[C@H]1C(=O)N2CCC[C@H]2[C@]2(O)O[C@](NC(=O)[C@@H]3C[C@@H]4c5cccc6[nH]cc(c56)C[C@H]4N(C)C3)(C(C)C)C(=O)N12 [dihydroergocryptine]
- Effect on ADP-mediated platelet activation/aggregation (platelets): significant potentiate ADP-mediated platelet aggregation

Molecule: COc1cc(CCN)cc(OC)c1OC [mescaline]
- Head twitching by classical 5HT2a agonists (5HT2a): induce this classical effect

Molecule: CN(C)CCc1c[nH]c2cccc(O)c12 [psilocin]
- Head twitching by classical 5HT2a agonists (5HT2a): induce this classical effect

Molecule: COC(=O)[C@@H]1[C@H]2C[C@H]3c4[nH]c5ccccc5c4CCN3C[C@@H]2CC[C@@H]1O [yohimbine]
- Effect on ADP-mediated platelet activation/aggregation (platelets): significant potentiate ADP-mediated platelet aggregation
- Inhibition of SDF-1α induced migration of Jurkat T cells, in words (Jurkat T cells): neither agent inhibits

Molecule: Cortistatin: more recently described somatostatin analog (DRMPCRNFFWKTFSSCK; ends and bridges not checked; cysteine pairing not given here; UniProt O00230 89-105, looked up)
- Max effect (maximum inhibition) (THP-1 cells): 40-60%
- Maximal inhibition of leukocyte migration (THP-1 cells): ~50%

Molecule: Sst-28: alternatively processed sst28 natural ligand
- Max effect (maximum inhibition) (THP-1 cells): 40-60%
- Maximal inhibition of leukocyte migration (THP-1 cells): 40-60%
